system: CHK2 phosphorylation (phospho-Thr68) in HCT116 cells; assay: Cellular pCHK2 assay, bleomycin-induced phosphorylation of CHK2 (phospho-Thr68), immunofluorescence high content; assay type: cell-based; conditions: Homo sapiens, HCT-116; HCT116 cells, 10 μM bleomycin, 4 h; read-out: IC50 (pCHK2)
Description: For the identification of substances which inhibit the phosphorylation of the protein kinase CHK2 at the amino acid threonine 68, an immunofluorescence-based “high content” analysis assay was used in HCT116 cells.
In vitro cell-based immunofluorescence assay for the identification of inhibitors of bleomycin-induced phosphorylation of CHK2 (phospho-Thr68) in the human colon carcinoma cell line HCT116:
HCT116 cells are sown out in a defined cell density in 384-well plates in culture medium (DMEM high glucose, 2 mM GlutaMax, 1 mM Na pyruvate, 10% FCS) and incubated overnight at 37° C. and 10% of CO2. On the following day, the test substances are added in a defined concentration range (1 nM to 30 μM) in combination with 10 μM bleomycin, where the concentration of the solvent DMSO is kept constant at 0.5%. After incubation for four hours at 37° C. and 10% of CO2, the cells are fixed (5 min, 4% formaldehyde in PBS), permeabilised (10 min, 0.2% Triton X-100 in PBS) and, after blocking of nonspecific binding sites (10% goat serum, 1% BSA in PBS), incubated overnight at 4° C. with a specific anti-pCHK2 antibody (cell signalling #2661). pCHK2 (Thr68) is determined using an Alexa488-labelled secondary anti-rabbit IgG antibody. Parallel staining of DNA with propidium iodide enables determination of the cell count. The pCHK2 signal is detected using a high-content imager (Molecular Devices IMX Ultra) and automatic image analysis using the MetaXpress software belonging to the instrument. The number of cell nuclei which have a pCHK2 signal above a defined background is determined.

`COc1cc2ncc3[nH]c(=O)n(-c4ncc(F)cc4F)c3c2cc1-c1cnn(C)c1` [compound 107, 1-(3,5-Difluoropyridin-2-yl)-7-methoxy-8-(1-methyl-1H-pyrazol-4-yl)-1,3-dihydro-imidazo[4,5-c]quinolin-2-one] and `COc1cnc(-n2c(=O)[nH]c3cnc4cc(OC)c(-c5cnn(C)c5)cc4c32)c(F)c1` [compound 115, 1-(3-Fluoro-5-methoxy-pyridin-2-yl)-7-methoxy-8-(1-methyl-1H-pyrazol-4-yl)-1,3-dihydroimidazo[4,5-c]-quinolin-2-one] fall in the same range of IC50: 200 to 1000 nM for the first, 200 to 1000 nM for the second.

`COc1cc2ncc3c(c2cc1-c1ccn[nH]1)n(-c1c(F)cncc1OC)c(=O)n3C` [compound 124, 1-(3-Fluoro-5-methoxy-pyridin-4-yl)-7-methoxy-3-methyl-8-(2H-pyrazol-3-yl)-1,3-dihydroimidazo[4,5-c] quinolin-2-one] and `COc1cc2ncc3c(c2cc1-c1cnn[nH]1)n(-c1c(F)cncc1OC)c(=O)n3C` [compound 134, 1-(3-Fluoro-5-methoxy-pyridin-4-yl)-7-methoxy-3-methyl-8-(3H-1,2,3-triazol-4-yl)-1,3-dihydroimidazo-[4,5-c]quinolin-2-one] fall in the same range of IC50: 200 to 1000 nM for the first, 200 to 1000 nM for the second.

`CCn1cc(-n2c(=O)n(C)c3cnc4cc(OC)c(-c5cn(C)nc5C)cc4c32)c(C)n1` [compound 135, 8-(1,3-Dimethyl-1H-pyrazol-4-yl)-1-(1-ethyl-3-methyl-1H-pyrazol-4-yl)-7-methoxy-3-methyl-1,3-dihydro-imidazo[4,5-c]quinolin-2-one] and `COc1cnc(-n2c(=O)n(C)c3cnc4cc(OC)c(-c5cn(C)nc5C)cc4c32)c(F)c1` [compound 106, 8-(1,3-Dimethyl-1H-pyrazol-4-yl)-1-(3-fluoro-5-methoxypyridin-2-yl)-7-methoxy-3-methyl-1,3-dihydroimidazo[4,5-c]-quinolin-2-one] fall in the same range of IC50: 200 to 1000 nM for the first, 200 to 1000 nM for the second.

`COc1cc2ncc3c(c2cc1-c1cn(C)nn1)n(-c1ccncc1F)c(=O)n3C` [compound 64, 1-(3-Fluoropyridin-4-yl)-7-methoxy-3-methyl-8-(1-methyl-1H-1,2,3-triazol-4-yl)-1,3-dihydroimidazo-[4,5-c]quinolin-2-one] and `COc1cnc(-n2c(=O)n(C)c3cnc4cc(OC)c(-c5cn(C)nn5)cc4c32)c(F)c1` [compound 133, 1-(3-Fluoro-5-methoxy-pyridin-2-yl)-7-methoxy-3-methyl-8-(1-methyl-1H-1,2,3-triazol-4-yl)-1,3-dihydroimidazo[4,5-c] quinolin-2-one] fall in the same range of IC50: 200 to 1000 nM for the first, 200 to 1000 nM for the second.

`COc1cc2ncc3c(c2cc1-c1cnn(C)c1)n(-c1c(F)cncc1C1CC1)c(=O)n3C` [compound 202, 1-(3-Cyclopropyl-5-fluoro-pyridin-4-yl)-7-methoxy-3-methyl-8-(1-methyl-1H-pyrazol-4-yl)-1,3-dihydro-imidazo[4,5-c]quinolin-2-one] and `COc1cc2ncc3c(c2cc1-c1cnn(C)c1)n(-c1ccncc1C1CC1)c(=O)n3C` [compound 200, 1-(3-Cyclopropylpyridin-4-yl)-7-methoxy-3-methyl-8-(1-methyl-1H-pyrazol-4-yl)-1,3-dihydroimidazo[4,5-c] quinolin-2-one] fall in the same range of IC50: 200 to 1000 nM for the first, 200 to 1000 nM for the second.

`COc1cc2ncc3c(c2cc1-c1cnn(C)c1)n(-c1c(F)cncc1OCF)c(=O)n3C` [compound 148] and `COc1cc2ncc3c(c2cc1-c1cnn(C)c1)n(-c1c(F)cncc1OC(F)F)c(=O)n3C` [compound 146, 1-(3-Difluoromethoxy-5-fluoropyridin-4-yl)-7-methoxy-3-methyl-8-(1-methyl-1H-pyrazol-4-yl)-1,3-dihydroimidazo[4,5-c]-quinolin-2-one] cannot be ordered by IC50: less than 200 nM for the first, less than 200 nM for the second.

`COc1cc2ncc3[nH]c(=O)n(-c4c(F)cncc4OC)c3c2cc1-c1cnn(C)c1` [compound 116, 1-(3-Fluoro-5-methoxy-pyridin-4-yl)-7-methoxy-8-(1-methyl-1H-pyrazol-4-yl)-1,3-dihydroimidazo[4,5-c]-quinolin-2-one] and `COc1cc2ncc3c(c2cc1-c1cnn(C2CNC2)c1)n(-c1c(F)cncc1OC)c(=O)n3C` [compound 208, 8-[1-(Azetidin-3-yl)-1H-pyrazol-4-yl]-1-(3-fluoro-5-methoxypyridin-4-yl)-7-methoxy-3-methyl-1H,2H,3H-imidazo[4,5-c]-quinolin-2-one] fall in the same range of IC50: 1000 to 2000 nM for the first, 1000 to 2000 nM for the second.

`COc1cc2ncc3c(c2cc1-c1cnn(C(F)F)c1)n(-c1c(F)cncc1OC)c(=O)n3C` [compound 143, 8-(1-Difluoromethyl-1H-pyrazol-4-yl)-1-(3-fluoro-5-methoxypyridin-4-yl)-7-methoxy-3-methyl-1,3-dihydroimidazo[4,5-c] quinolin-2-one] and `CCn1cc(-c2cc3c(cc2OC)ncc2c3n(-c3ccncc3OC)c(=O)n2C)cn1` [compound 104, 8-(1-Ethyl-1H-pyrazol-4-yl)-7-methoxy-1-(3-methoxy-pyridin-4-yl)-3-methyl-1,3-dihydroimidazo[4,5-c] quinolin-2-one] fall in the same range of IC50: 200 to 1000 nM for the first, 200 to 1000 nM for the second.

`COc1cc2ncc3c(c2cc1-c1cnn(C)n1)n(-c1ncccc1F)c(=O)n3C` [compound 158, 1-(3-Fluoropyridin-2-yl)-7-methoxy-3-methyl-8-(2-methyl-2H-1,2,3-triazol-4-yl)-1,3-dihydroimidazo-[4,5-c]quinolin-2-one] and `CCc1cncc(F)c1-n1c(=O)n(C)c2cnc3cc(OC)c(-c4cnn(C)n4)cc3c21` [compound 112, 1-(3-Ethyl-5-fluoropyridin-4-yl)-7-methoxy-3-methyl-8-(2-methyl-2H-1,2,3-triazol-4-yl)-1,3-dihydroimidazo-[4,5-c]quinolin-2-one] fall in the same range of IC50: 200 to 1000 nM for the first, 200 to 1000 nM for the second.

`COc1cc2ncc3c(c2cc1-c1cnn(C)c1)n(-c1ccc(C#N)cn1)c(=O)n3C` [Compound Example 48, 6-[7-Methoxy-3-methyl-8-(1-methyl-1H-pyrazol-4-yl)-2-oxo-2,3-dihydroimidazo-[4,5-c]quinolin-1-yl]-nicotinonitrile] and `COc1cc2ncc3c(c2cc1-c1cnn(C)c1)n(-c1ccc2cc[nH]c2n1)c(=O)n3C` [compound 69, 7-Methoxy-3-methyl-8-(1-methyl-1H-pyrazol-4-yl)-1-(1H-pyrrolo[2,3-b]pyridin-6-yl)1,3-dihydroimidazo-[4,5-c]quinolin-2-one] fall in the same range of IC50: 200 to 1000 nM for the first, 200 to 1000 nM for the second.

Compared with `COc1cnc(-n2c(=O)n(C)c3cnc4cc(OC)c(-c5cnn[nH]5)cc4c32)c(F)c1` [compound 128, 1-(3-Fluoro-5-methoxy-pyridin-2-yl)-7-methoxy-3-methyl-8-(3H-1,2,3-triazol-4-yl)-1,3-dihydroimidazo-[4,5-c]quinolin-2-one], `COc1cnc(-n2c(=O)n(C)c3cnc4cc(OC)c(-c5ccn[nH]5)cc4c32)c(F)c1` [compound 109, 1-(3-Fluoro-5-methoxy-pyridin-2-yl)-7-methoxy-3-methyl-8-(2H-pyrazol-3-yl)-1,3-dihydroimidazo[4,5-c] quinolin-2-one] is lower in IC50: 200 to 1000 nM for the first, less than 200 nM for the second.

First: CCc1cnccc1-n1c(=O)n(C)c2cnc3cc(OC)c(-c4cnn(C)c4)cc3c21 [compound 156, 1-(3-Ethylpyridin-4-yl)-7-methoxy-3-methyl-8-(1-methyl-1H-pyrazol-4-yl)-1,3-dihydroimidazo[4,5-c] quinolin-2-one]
Second: CCOc1cnc(-n2c(=O)n(C)c3cnc4cc(OC)c(-c5cnn(C)c5)cc4c32)c(F)c1 [compound 113, 1-(5-Ethoxy-3-fluoropyridin-2-yl)-7-methoxy-3-methyl-8-(1-methyl-1H-pyrazol-4-yl)-1,3-dihydroimidazo[4,5-c]-quinolin-2-one]
The IC50 of the first is higher: 200 to 1000 nM for the first, less than 200 nM for the second. The second is the more potent here.

Compared with `COc1cc2ncc3c(c2cc1-c1cnn(C)c1)n(-c1ccc2ccccc2n1)c(=O)n3C` [compound 68, 7-Methoxy-3-methyl-8-(1-methyl-1H-pyrazol-4-yl)-1-quinolin-2-yl-1,3-dihydro-imidazo[4,5-c]quinolin-2-one], `COc1cc2ncc3c(c2cc1-c1ccc2nc(C)[nH]c2c1)n(-c1cn(C)nc1C)c(=O)n3C` [compound 132, 1-(1,3-Dimethyl-1H-pyrazol-4-yl)-7-methoxy-3-methyl-8-(2-methyl-3H-benzo-imidazol-5-yl)-1,3-dihydro-imidazo[4,5-c]quinolin-2-one] is lower in IC50: 1000 to 2000 nM for the first, 200 to 1000 nM for the second. The second is the more potent here.

First: [2H]C([2H])([2H])Oc1cncc(F)c1-n1c(=O)n(C)c2cnc3cc(OC)c(-c4cn(C)nc4C)cc3c21 [compound 150, 8-(1,3-Dimethylpyrazol-4-yl)-1-[3-fluoro-5-(trideuterio-methoxy)-4-pyridyl]-7-methoxy-3-methyl-imidazo-[4,5-c]quinolin-2-one]
Second: COc1cc2ncc3c(c2cc1-c1cn(C)nc1C)n(-c1ncc(OCS(C)(=O)=O)cc1F)c(=O)n3C [compound 203, 8-(1,3-Dimethyl-1H-pyrazol-4-yl)-1-(3-fluoro-5-methyl-sulfonylmethoxypyridin-2-yl)-7-methoxy-3-methyl-1,3-dihydroimidazo[4,5-c]-quinolin-2-one]
The IC50 of the first is lower: less than 200 nM for the first, 200 to 1000 nM for the second.

In the case of `COc1cnc(-n2c(=O)n(C)c3cnc4cc(OC)c(-c5ccc6nc(C)[nH]c6c5)cc4c32)c(F)c1` [compound 144, 1-(3-Fluoro-5-methoxy-pyridin-2-yl)-7-methoxy-3-methyl-8-(2-methyl-3H-benzoimidazol-5-yl)-1,3-dihydroimidazo[4,5-c]-quinolin-2-one], the IC50 is reported as 200 to 1000 nM.
